Assay results reported in patent US4327085A, “Biologically active compositions and methods of use” (Agence National de Valorisation de la Recherache (ANVAR), priority 1973, dated 1982).

Columns and labels:
[1] = test system: bovine serum albumin (BSA) antigen; test: Adjuvant activity in aqueous phase: anti-albumin antibody rate by passive hemagglutination; type: in vivo, Swiss mice; details: S.C., 100 μg with BSA 0.5 mg/animal in isotonic saline
Protocol: In the series of tests of which the results are indicated hereafter, the influence of the active principle according to the invention was assessed as bearing on the anti-albumin antibody rate, particularly under the following conditions.
Groups of 8 two-month-old Swiss mice received by subcutaneous injection (SC) or orally (PO) 0.5 mg of antigen constituted by the bovine serum albumin (BSA) with or without the substance tested in an isotonic saline solution. This large dose of antigen, because of its closeness to the limit paralysing dose with respect to the immunising response, elicits but a weak or no immune response in the controls; it therefore constitutes a severe criterion for showing the activity of an adjuvant substance. Thirty days later, the mice received, by the same method of administration, a further dose containing 0.1 mg of the same antigen.
The proportion of antibody was determined by passive hemagglutination by using sheep red blood cells treated with formalin and coated with the antigen studied according to the method described by A. A. HIRATA and M. W. […] (J. Immunol., 100, 641-648, 1968). Blood samples were taken 14, 28, 34 and 36 days after the first injection.

[2] = test system: Klebsiella pneumoniae, strain of capsular type 2, biotype d; test: Anti-infectious protection of mice against Klebsiella pneumoniae infection; type: in vivo, hybrid mice (C57B1/6×AKR)F1; details: compound iv. 100 μg at -24 h; for % protection: difference of % survivors vs controls

| SMILES | Titer of antibody 28th day [1] | % survival D + 3 ([2]; K. pneumoniae im. 1,5 × 10^4) | % survival D + 5 ([2]; K. pneumoniae im. 1,5 × 10^4) | % survival D + 10 ([2]; K. pneumoniae im. 1,5 × 10^4) | % protection ([2]; K. pneumoniae im. 1,5 × 10^4) | % survival D + 3 ([2]; K. pneumoniae im. 2 × 10^4) | % survival D + 5 ([2]; K. pneumoniae im. 2 × 10^4) | % survival D + 10 ([2]; K. pneumoniae im. 2 × 10^4) | % protection ([2]; K. pneumoniae im. 2 × 10^4) |
| --- | --- | --- | --- | --- | --- | --- | --- | --- | --- |
| CC(=O)N[C@H]1C(O)O[C@H](CO)[C@@H](O)[C@@H]1OCC(=O)N[C@@H](C)C(=O)N[C@H](CCC(=O)O)C(N)=O (stereo partly drawn) [norMur--NAc--L-Ala--D-Glu(OH)--NH2, 2(2-acetamido-2-deoxy-3-O-D-glucopyranosyl)-acetyl-L-alanyl-D-isoglutamine] | 25 | 78% | 64% | 60% | 47% | – | – | – | – |
| CC(=O)N[C@H]1C(O)O[C@H](COC(C)=O)[C@@H](OC(C)=O)[C@@H]1O[C@H](C)C(=O)N[C@@H](C)C(=O)N[C@H](CCC(=O)O)C(N)=O (stereo partly drawn) [4,6-di-O-acetyl--Mur--NAc--L--Ala--D--Glu(OH)--NH2] | – | – | – | – | – | 97% | 84% | 63% | 47% |
| CC(=O)N[C@H]1C(O)O[C@H](COC(=O)CCC(=O)O)[C@@H](O)[C@@H]1O[C@H](C)C(=O)N[C@@H](C)C(=O)N[C@H](CCC(=O)O)C(N)=O (stereo partly drawn) [6-O-succinyl-Mur-NAc--L--Ala--D--Glu,(OH)--NH2] | – | – | – | – | – | 100% | 91% | 63% | 44% |
| CC(=O)N[C@@H]1[C@@H](O[C@H](C)C(=O)N[C@@H](C)C(=O)N[C@H](CCC(=O)O)C(N)=O)[C@H](O)[C@@H](CO)O[C@H]1O [Mur--NAc--L-Ala--D-Glu(OH)--NH2, Mur--NAc--L--Ala--D--Glu(OH)--NH2, reference compound] | 25 | 83% | 66% | 60% | 47% | – | – | – | – |
